Test results published in patent US10195179B2, “Spiro-lactam NMDA receptor modulators and uses thereof” (Aptinyx Inc., priority 2016, dated 2019).
Read-outs that look alike come from different tables or passages of the source.

What was measured:
[1] = Microsomal stability, rat; assay type: in vitro ADME; conditions: rat microsomes
Procedure: (§1) Microsomal stability for Compound AA and Compound BB was investigated. The following table indicates the percent of Compound AA and Compound BB remaining after 60 minutes.

[2] = Bioavailability and CSF/brain/plasma exposure after PO administration; assay type: in vivo, Sprague Dawley rats; conditions: rat, plasma; PO administration (10 mg/kg PO, 2 mg/kg IV), male Sprague Dawley rats; read-out: Bioavailablity (% F)
Procedure: The bioavailablity of Compound BB was investigated following PO administration. CSF, brain and plasma samples were analyzed following dosing with compound BB (10 mg/kg). The following table indicates the bioavailablity and CSF/plasma and brain/plasma ratios.
Sprague Dawley rats were dosed intravenously with 2 mg/kg of Compound AA. A second group of Sprague Dawley rats was dosed per os with 10 mg/kg of compound AA. Plasma samples were drawn over a 24 h period and analyzed for Compound AA. FIG. 3A presents the mean plasma concentration-time profile of Compound AA following the single intraveneous (2 mg/kg) and oral (10 mg/kg) dose administration in male Sprague Dawley rats over the 24 hour period.
In another experiment. Sprague Dawley rats were dosed intravenously with 2 mg/kg of Compound BB. A second group of Sprague Dawley rats was dosed per os with 10 mg/kg of compound BB. Plasma samples were drawn over a 24 h period and analyzed for Compound BB. FIG. 3B presents the mean plasma concentration-time profile of Compound BB following the single intraveneous (2 mg/kg) and oral (10 mg/kg) dose administration in male Sprague Dawley rats over the 24 hour period.
In another experiment, Sprague Dawley rats were dosed per os with 10 mg/kg of Compound BB. Plasma, brain, and CSF samples were analyzed at various time points over a 24 hour period.

[3] = target: NR2C (Homo sapiens, UniProt Q14957); assay: Potentiation of [3H]MK-801 binding, wild-type NMDAR2C; design: species or system rat; conditions: for NMDAR2C BINDING PROFILE % 1 mM Glycine: relative to 1 mM glycine
Procedure: (§2) Assays were conducted as described by Moskal et al., “GLYX-13: a monoclonal antibody-derived peptide that acts as an N-methyl-D-aspartate receptor modulator,” Neuropharmacology, 49, 1077-87, 2005. The potentiation of [^3H]MK-801 binding (5 nM; 22.5 Ci/mmol) to well washed rat cortical membranes (200 μg) was measured under non-equilibrium conditions (15 min @ 25° C.) in the presence of increasing concentrations of Compound AA or Compound BB.
(§3) FIG. 2A depicts the potentiation of [^3H]MK-801 binding for wild-type NMDAR2 subtypes in the presence of Compound AA. FIG. 2B depicts the potentiation of [^3H]MK-801 binding for wild-type NMDAR2 subtypes in the presence of Compound BB. The following table depicts the results (P means potency and A means activity): […]

[4] = system: Sprague Dawley rats; assay: Porsolt forced swim test; assay type: in vivo, rat; conditions: 1 mg/kg PO
Procedure: A non-clinical in vivo pharmacology study (Porsolt assay) was performed to measure antidepressant-like effects. A negative control (0.5% sodium carboxymethyl cellulose in 0.9% sterile saline vehicle) and a positive control (Compound C) were used to compare against Compound BB. The study allowed for the construction of a dose-response curve of the effects of each compound on the Porsolt forced swim test as assessed by the rats' response (reduced floating time) during a 5-minute swimming test.
Male 2-3 month old Sprague Dawley rats were used (Harlan, Indianapolis, Ind.). Rats were housed in Lucite cages with aspen wood chip bedding, maintained on a 12:12 light:dark cycle (lights on at 5 AM), and given ad libitum access to Purina lab chow (USA) and tap water throughout the study.
The Porsolt forced swim test adapted for use in rats was performed as described by Burgdorf et al., (The long-lasting antidepressant effects of rapastinel (GLYX-13) are associated with a metaplasticity process in the medial prefrontal cortex and hippocampus. Neuroscience 308:202-211, 2015). Animals were placed in a 46 cm tall×20 cm in diameter clear glass tube filled to 30 cm with tap water (23±1° C.) for 15 min on the first day (habituation) and 5 min on the subsequent test day. Animals were tested 1 h post-dosing with the compound BB, positive control (Compound C, 10 μg/kg), or vehicle (0.5% sodium carboxymethyl cellulose (Na-CMC) in 0.9% sterile saline). Water was changed after every other animal. Animals were videotaped, and floating time as defined as the minimal amount of effort required to keep the animals head above water was scored offline by a blinded experimenter with high inter-rater reliability (Pearson's r >0.9).
The maximally efficacious dose was defined as the lowest dose that was statistically different from vehicle but statistically equivalent (per Fisher's PLSD) to the higher doses. […]
Compound AA was assessed in a second set of animals at a single dose at 1 h post-administration and in a third set of animals at 24 h post-administration (FIG. 9B). […]

[5] = target: NR2A (Homo sapiens, UniProt Q12879); assay: Potentiation of [3H]MK-801 binding, wild-type NMDAR2A; design: species or system rat; conditions: for NMDAR2A BINDING PROFILE % 1 mM Glycine: relative to 1 mM glycine
[6] = Plasma stability, rat; assay type: in vitro ADME
Procedure: (§4) Plasma stability for Compound AA and Compound BB was investigated. The following table indicates the percent of Compound AA and Compound BB remaining after 60 minutes.

[7] = Plasma protein binding assay, rat; assay type: in vitro ADME; conditions: read-out: Plasma Protein binding (% Bound) Plasma rat (converted)
Procedure: Bound drug concentration in the brain was also investigated, and plasma protein binding assays were conducted. The following table (% bound) indicates results for Compound AA and Compound BB.

[8] = target: NR2D (Homo sapiens, UniProt O15399); assay: Potentiation of [3H]MK-801 binding, wild-type NMDAR2D; design: species or system rat; conditions: for NMDAR2D BINDING PROFILE % 1 mM Glycine: relative to 1 mM glycine
Procedure: as §2, §3

[9] = Plasma stability, human; assay type: in vitro ADME
Procedure: as §4

[10] = Microsomal stability, human; assay type: in vitro ADME; conditions: human microsomes
Procedure: as §1

[11] = target: NR2B (Homo sapiens, UniProt Q13224); assay: Potentiation of [3H]MK-801 binding, wild-type NMDAR2B; design: species or system rat; conditions: for NMDAR2B BINDING PROFILE % 1 mM Glycine: relative to 1 mM glycine; for NMDAR2B BINDING PROFILE Conclusion / EC50: wild-type NMDAR2B; for EC50: 0 = no activity, read-out: NMDAR2B BINDING PROFILE −logEC50 (converted)
Procedure: as §2, §3

[12] = potentiation of [3H]MK-801 binding
[13] = wild-type NMDAR2D, read-out: NMDAR2D BINDING PROFILE −logEC50 (converted)
[14] = wild-type NMDAR2C, 0 = no activity, read-out: NMDAR2C BINDING PROFILE −logEC50 (converted)
[15] = wild-type NMDAR2A, 0 = no activity, read-out: NMDAR2A BINDING PROFILE −logEC50 (converted)

Chain of NR2D (O15399 28-1336, species assumed, other chains not shown): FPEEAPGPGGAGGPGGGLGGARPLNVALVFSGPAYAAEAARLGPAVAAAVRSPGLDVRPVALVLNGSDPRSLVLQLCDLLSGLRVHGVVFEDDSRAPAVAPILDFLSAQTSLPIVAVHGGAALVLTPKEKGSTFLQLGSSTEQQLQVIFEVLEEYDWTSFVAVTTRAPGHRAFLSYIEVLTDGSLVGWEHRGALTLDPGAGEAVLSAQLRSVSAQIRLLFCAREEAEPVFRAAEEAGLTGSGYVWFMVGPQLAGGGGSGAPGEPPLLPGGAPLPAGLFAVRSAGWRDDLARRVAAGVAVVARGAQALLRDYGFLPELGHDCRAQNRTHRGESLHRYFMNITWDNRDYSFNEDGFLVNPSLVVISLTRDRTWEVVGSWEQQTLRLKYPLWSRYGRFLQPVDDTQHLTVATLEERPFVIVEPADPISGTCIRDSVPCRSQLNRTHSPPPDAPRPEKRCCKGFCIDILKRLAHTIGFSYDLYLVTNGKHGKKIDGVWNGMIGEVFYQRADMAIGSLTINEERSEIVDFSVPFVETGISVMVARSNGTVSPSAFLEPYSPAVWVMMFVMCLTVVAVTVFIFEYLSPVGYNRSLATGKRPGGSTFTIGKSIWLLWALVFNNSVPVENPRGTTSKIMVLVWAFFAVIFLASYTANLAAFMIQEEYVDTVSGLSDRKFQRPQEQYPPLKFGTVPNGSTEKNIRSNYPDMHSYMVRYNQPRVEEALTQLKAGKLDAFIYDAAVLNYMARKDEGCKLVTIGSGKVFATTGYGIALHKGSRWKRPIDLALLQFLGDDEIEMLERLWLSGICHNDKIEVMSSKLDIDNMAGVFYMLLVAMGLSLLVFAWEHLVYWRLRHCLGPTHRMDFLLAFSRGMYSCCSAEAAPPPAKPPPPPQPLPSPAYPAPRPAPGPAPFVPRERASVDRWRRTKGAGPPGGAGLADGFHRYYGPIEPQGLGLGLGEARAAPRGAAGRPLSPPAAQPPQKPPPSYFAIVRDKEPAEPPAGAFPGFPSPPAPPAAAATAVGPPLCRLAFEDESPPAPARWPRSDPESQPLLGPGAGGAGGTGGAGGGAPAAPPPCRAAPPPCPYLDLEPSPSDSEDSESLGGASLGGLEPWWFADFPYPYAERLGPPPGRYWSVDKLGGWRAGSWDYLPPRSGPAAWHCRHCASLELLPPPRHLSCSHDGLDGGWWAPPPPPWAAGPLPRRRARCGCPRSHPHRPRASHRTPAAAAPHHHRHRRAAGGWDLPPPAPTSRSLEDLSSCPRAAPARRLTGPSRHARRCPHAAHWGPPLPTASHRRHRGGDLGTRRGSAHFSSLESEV
Chain of NR2A (Q12879 23-1464, species assumed, other chains not shown): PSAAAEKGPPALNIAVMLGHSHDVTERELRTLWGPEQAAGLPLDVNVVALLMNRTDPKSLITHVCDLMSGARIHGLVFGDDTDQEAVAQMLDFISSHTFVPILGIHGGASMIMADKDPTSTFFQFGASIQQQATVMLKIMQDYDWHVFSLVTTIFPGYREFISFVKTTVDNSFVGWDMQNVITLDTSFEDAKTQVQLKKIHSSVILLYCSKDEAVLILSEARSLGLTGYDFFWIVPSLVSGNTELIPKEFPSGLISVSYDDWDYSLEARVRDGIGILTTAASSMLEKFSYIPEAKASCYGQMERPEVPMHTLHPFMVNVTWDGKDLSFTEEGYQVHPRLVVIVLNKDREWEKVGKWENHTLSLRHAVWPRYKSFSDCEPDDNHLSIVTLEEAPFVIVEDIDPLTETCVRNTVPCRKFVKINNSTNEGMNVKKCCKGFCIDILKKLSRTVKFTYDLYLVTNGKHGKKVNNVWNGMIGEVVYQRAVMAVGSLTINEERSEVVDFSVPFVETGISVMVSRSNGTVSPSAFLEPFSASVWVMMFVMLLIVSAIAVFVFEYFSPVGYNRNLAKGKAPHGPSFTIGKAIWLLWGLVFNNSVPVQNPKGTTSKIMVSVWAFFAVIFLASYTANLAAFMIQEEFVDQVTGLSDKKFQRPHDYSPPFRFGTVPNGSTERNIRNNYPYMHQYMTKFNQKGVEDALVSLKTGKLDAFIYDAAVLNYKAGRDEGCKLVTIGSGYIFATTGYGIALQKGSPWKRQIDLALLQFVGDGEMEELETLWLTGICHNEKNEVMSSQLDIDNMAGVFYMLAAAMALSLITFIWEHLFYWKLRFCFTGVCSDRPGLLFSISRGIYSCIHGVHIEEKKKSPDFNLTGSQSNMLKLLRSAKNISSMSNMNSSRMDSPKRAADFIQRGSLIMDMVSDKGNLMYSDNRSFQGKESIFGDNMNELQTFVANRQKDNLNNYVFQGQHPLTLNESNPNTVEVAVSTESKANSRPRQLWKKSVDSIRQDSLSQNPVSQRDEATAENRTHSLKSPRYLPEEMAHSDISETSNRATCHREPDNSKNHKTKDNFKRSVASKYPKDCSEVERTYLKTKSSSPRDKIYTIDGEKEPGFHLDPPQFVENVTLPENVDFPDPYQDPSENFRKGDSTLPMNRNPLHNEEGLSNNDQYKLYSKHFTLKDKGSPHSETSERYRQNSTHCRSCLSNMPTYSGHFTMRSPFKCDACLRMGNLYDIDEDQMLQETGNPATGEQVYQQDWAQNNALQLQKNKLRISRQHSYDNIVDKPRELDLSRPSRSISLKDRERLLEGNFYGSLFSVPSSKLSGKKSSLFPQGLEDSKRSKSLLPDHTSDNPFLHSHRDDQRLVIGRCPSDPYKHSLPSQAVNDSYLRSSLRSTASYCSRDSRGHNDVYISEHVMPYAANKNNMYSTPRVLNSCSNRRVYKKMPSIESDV
Chain of NR2B (Q13224 27-1484, species assumed, other chains not shown): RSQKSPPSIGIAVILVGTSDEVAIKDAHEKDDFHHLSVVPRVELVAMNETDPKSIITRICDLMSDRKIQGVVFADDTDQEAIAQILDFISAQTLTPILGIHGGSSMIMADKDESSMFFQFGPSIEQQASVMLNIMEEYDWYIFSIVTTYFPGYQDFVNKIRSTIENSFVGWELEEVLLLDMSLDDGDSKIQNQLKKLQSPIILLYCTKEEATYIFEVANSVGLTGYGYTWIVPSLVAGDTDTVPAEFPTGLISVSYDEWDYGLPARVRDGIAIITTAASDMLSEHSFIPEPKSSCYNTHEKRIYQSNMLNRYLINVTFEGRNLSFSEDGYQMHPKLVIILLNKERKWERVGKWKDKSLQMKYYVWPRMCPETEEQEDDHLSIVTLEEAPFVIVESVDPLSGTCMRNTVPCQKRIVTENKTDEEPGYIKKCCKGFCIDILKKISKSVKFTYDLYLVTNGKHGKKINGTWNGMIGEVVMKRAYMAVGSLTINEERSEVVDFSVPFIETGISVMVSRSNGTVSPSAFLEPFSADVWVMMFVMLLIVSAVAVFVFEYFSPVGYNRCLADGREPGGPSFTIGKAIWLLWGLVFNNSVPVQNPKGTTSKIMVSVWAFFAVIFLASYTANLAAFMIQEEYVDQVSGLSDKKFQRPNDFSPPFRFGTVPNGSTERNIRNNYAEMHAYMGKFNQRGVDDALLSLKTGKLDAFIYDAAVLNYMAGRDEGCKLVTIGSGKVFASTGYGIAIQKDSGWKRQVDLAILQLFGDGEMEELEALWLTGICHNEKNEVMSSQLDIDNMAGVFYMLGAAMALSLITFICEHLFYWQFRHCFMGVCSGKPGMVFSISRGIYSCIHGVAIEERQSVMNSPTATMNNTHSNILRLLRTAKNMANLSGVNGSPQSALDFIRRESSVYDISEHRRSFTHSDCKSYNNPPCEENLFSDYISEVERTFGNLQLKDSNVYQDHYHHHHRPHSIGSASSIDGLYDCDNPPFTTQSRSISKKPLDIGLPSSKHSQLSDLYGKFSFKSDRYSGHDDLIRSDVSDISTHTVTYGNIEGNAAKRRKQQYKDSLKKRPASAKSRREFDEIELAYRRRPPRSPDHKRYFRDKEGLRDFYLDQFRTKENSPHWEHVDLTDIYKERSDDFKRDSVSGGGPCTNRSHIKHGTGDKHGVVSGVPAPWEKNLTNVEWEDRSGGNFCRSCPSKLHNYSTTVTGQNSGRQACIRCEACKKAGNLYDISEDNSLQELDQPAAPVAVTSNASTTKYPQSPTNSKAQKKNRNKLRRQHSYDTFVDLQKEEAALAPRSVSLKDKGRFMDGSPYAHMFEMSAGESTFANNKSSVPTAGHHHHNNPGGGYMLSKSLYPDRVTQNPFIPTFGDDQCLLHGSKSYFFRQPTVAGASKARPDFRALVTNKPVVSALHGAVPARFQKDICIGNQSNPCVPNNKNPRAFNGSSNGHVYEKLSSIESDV

SMILES | NMDAR2C BINDING PROFILE % 1 mM Glycine [3] [%] | NMDAR2C BINDING PROFILE Conclusion ([3]; wild-type NMDAR2C) | NMDAR2A BINDING PROFILE % 1 mM Glycine [5] [%] | NMDAR2A BINDING PROFILE Conclusion ([5]; wild-type NMDAR2A) | NMDAR2D BINDING PROFILE % 1 mM Glycine [8] [%] | NMDAR2D BINDING PROFILE Conclusion ([8]; wild-type NMDAR2D) | EC50 [8, 13] [M] | NMDAR2B BINDING PROFILE % 1 mM Glycine [11] [%] | NMDAR2B BINDING PROFILE Conclusion [11] | EC50 [3, 14] [M] | EC50 [5, 15] [M] | EC50 [11] [nM] | also measured
C[C@@H](O)[C@@H](C(N)=O)N1C[C@]2(CCCN2S(C)(=O)=O)C1=O [Compound AA, (2S,3R)-3-hydroxy-2-((R)-5-(methylsulfonyl)-1-oxo-2,5-diazaspiro[3,4]octan-2-yl)butanamide] | 67 | WT2C agonist | 38.8 | WT2A agonist | 52 | WT2D agonist | 1.58e-11 | 0 | WT2B no |  |  |  | Microsomal Stability (% remaining at 60 min) Rat [1]: 100%; bioavailability [2]: 29%; NR2C A (%) (activity) [3, 12]: 67.0%; EC50 ([3]; potentiation of [3H]MK-801 binding, 0 = no activity, read-out: NR2C P (M) (potency)): 1e-10 M; NMDAR2C BINDING PROFILE −logEC50 ([3]; wild-type NMDAR2C, 0 = no activity): 10; floating time in the Porsolt test ([4]; 1 h post-dosing): significant (p<0.05) antidepressant-like effect; floating time in the Porsolt test ([4]; 24 h post-dosing): significant (p<0.05) antidepressant-like effect; NR2A A (%) (activity) [5, 12]: 38.8%; EC50 ([5]; potentiation of [3H]MK-801 binding, 0 = no activity, read-out: NR2A P (M) (potency)): 1e-10 M; NMDAR2A BINDING PROFILE −logEC50 ([5]; wild-type NMDAR2A, 0 = no activity): 10; Plasma Stability (% remaining at 60 min) Rat [6]: 59%; fraction unbound [7]: 0.82; NR2D A (%) (activity) [8, 12]: 58.7%; EC50 ([8]; potentiation of [3H]MK-801 binding, 0 = no activity, read-out: NR2D P (M) (potency) (converted)): 2e-11 M; Plasma Stability (% remaining at 60 min) Human [9]: 91%; Microsomal Stability (% remaining at 60 min) Human [10]: 100%; NR2B A (%) (activity) [11, 12]: 0%
C[C@@H](O)[C@@H](C(N)=O)N1C[C@]2(CCCN2C(=O)OC(C)(C)C)C1=O [Compound W, tert-butyl (R)-2-((2S,3R)-1-amino-3-hydroxy-1-oxobutan-2-yl)-1-oxo-2,5-diazaspiro[3,4]octane-5-carboxylate] | 67.5 | WT2C agonist | 18.33 | WT2A agonist | 66.72 | WT2D agonist | 7.08e-12 | 53.09 | WT2B agonist | 1.45e-10 | 4.47e-12 | 1.06 | 
C[C@@H](O)[C@@H](C(N)=O)N1C[C@@]2(CCCN2C(=O)OC(C)(C)C)C1=O [Compound X, tert-butyl (S)-2-((2S,3R)-1-amino-3-hydroxy-1-oxobutan-2-yl)-1-oxo-2,5-diazaspiro[3,4]octane-5-carboxylate] | 59.73 | WT2C agonist | 41.04 | WT2A agonist | 93.58 | WT2D agonist | 1.32e-12 | 59.55 | WT2B agonist |  |  | 0.147 | 
CC(C)C(=O)N1CCC[C@]12CN([C@H](C(N)=O)[C@@H](C)O)C2=O [Compound Y, (2S,3R)-3-hydroxy-2-((R)-5-isobutyryl-1-oxo-2,5-diazaspiro[3,4]octan-2-yl)butanamide] | 64.24 | WT2C agonist | 61.76 | WT2A agonist | 54.85 | WT2D agonist | 1e-10 | 70.74 | WT2B agonist | 3.63e-12 | 8.91e-12 |  | 
CC(C)C(=O)N1CCC[C@@]12CN([C@H](C(N)=O)[C@@H](C)O)C2=O [Compound Z, (2S,3R)-3-hydroxy-2-((S)-5-isobutyryl-1-oxo-2,5-diazaspiro[3,4]octan-2-yl)butanamide] | 47.76 | WT2C agonist | 42.5 | WT2A agonist | 65.32 | WT2D agonist | 6.03e-12 | 70.49 | WT2B agonist | 3.16e-12 | 8.71e-11 |  | 
